Data: patent publication US9243281B2, “Neuroprotective chemicals and methods for identifying and using same” (Board of Regents of The University of Texas System, priority 2013, dated 2016)

Assays:
[1] = test system: hippocampal neurogenesis (Dentate Gyrus); experiment: in vivo neurogenesis assay (BrdU+ cells in dentate gyrus); parameters: species or system mice; conditions: living mice; vehicle (DMSO) 7.3
Outline: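 New hippocampal cells were tracked by daily BrdU injections and anti-BrdU staining of brain sections. Adult mice (two per pool of ten compounds) got week-long intracerebroventricular infusion by mini-pump, dosed for mid-nanomolar exposure.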

[2] = test system: U2OS cells; experiment: doxorubicin toxicity (dox:tox) protection assay, Cell Titer Glo cell survival; type: cell-based; conditions: cultured U2OS cells
Description: FIGS. 2A-2D. […] (FIG. 2A) Chemical structure of P7C3-S326. […] (FIG. 2C) Formulas used for calculating doxorubicin toxicity (dox:tox) protection activity. Protection activity is expressed by (Sinf−S0)/AC50 in the twelve-point dose response curve (DRC) corresponding to each compound, wherein both efficacy and potency of compounds were considered. Sinf represents the expected maximal protection. S0 is the baseline. […] In the photo-crosslinking assays, the p70 band intensity was quantified by Image J, and compared the sample of P7C3-S326 alone with that of P7C3-S326 plus competitor. Pearson correlation coefficient (r) and two tailed P value were determined by GraphPad Prism 6 and Spearman Rank Correlation (v1.0.1) software.
FIG. 10. Twelve-point dose response curves (DRC) of all tested compounds in doxorubicin toxicity protection assay. […] Cell viability was determined by Cell Titer Glo assay kit.
(§1) Cell survival assay was performed in 96-well plates using CellTiter-Glo Luminescent Cell Viability Assay kit (Promega) that measures cellular ATP content. The CellTiter-Glo reagent was diluted by adding 2 volumes of PBS containing 1% Triton X-100. 50 μl of diluted reagent was directly added to 100 μl of cell culture medium per well. Plates were incubated at room temperature for 10 minutes. Luminescence was recorded by Tecan […]luor Plus reader (Tecan). Cell survival was presented as the percentage of viable cells compared with untreated control, and mean±SD was calculated from duplicates. The dox:tox assay of P7C3 analogs was carried out in the HTS Core (University of Texas Southwestern Medical Center) using the EnVison multimode plate reader (Perkin Elmer).

[3] = test system: NAD levels in doxorubicin-treated U2OS cells; experiment: NAD rebound assay in doxorubicin-treated cells (NAD/NADH Glo); type: cell-based; conditions: 0.5 μM doxorubicin 45 h
Method: FIG. 12. Five-point dose response curves (DRC) of all tested compounds in NAD rebound assay. […] Cellular NAD abundance was determined by NAD/NADH Glo assay kit.
Each chemical variant of P7C3 was co-incubated with doxorubicin on cultured U2OS cells at five doses (0.03 uM, 0.1 uM, 0.3 uM, 1 uM and 3 uM). After 45 hrs incubation, cells were assayed for intracellular levels of NAD (FIG. 12).
Assay was performed following the manufacturer's protocol. NAD/NADH-Glo reagent contains the NAD Cycling Enzyme that converts NAD+ to NADH. In the presence of NADH, the enzyme reductase reduces a proluciferin reductase substrate to form luciferin. Cells were grown in 96- or 384-well plates. 50 μl or 15 μl of NAD/NADH-Glo™ Detection Reagent were added to each well. The resulting luminescence signals were measured by Tecan plate reader or EnVison multimode plate reader (Perkin Elmer).

[4] = test system: U2OS cells; experiment: cell survival assay with seven other toxins; type: cell-based; conditions: 5 μM P7C3-A20 2 h prior to toxins for 72 h
Method: FIG. 8. P7C3A20 protects U2OS cells from doxorubicin-mediated toxicity. U2OS cells were treated with 5 μM P7C3-A20 for 2 h prior to incubation with the indicated concentrations of eight toxins for 72 h.
(§2) Progress on studies aimed towards resolving the mode of action of P7C3 has been hampered by the fact that we have been limited to studies of drug action in living animals. Our standard assay of neurogenesis requires, under optimal conditions, a one month turn-around from the synthesis of a new derivative to a score for its neuroprotective activity. In efforts to break this logjam, we tested whether P7C3 might have cell-protective activity to any of eight generic toxins.
as §1, with “Plates were incubated at room temperature for 10 minutes.” left out

[5] = test system: U2OS cells; experiment: western blotting of caspase-3 activation and γ-H2AX after doxorubicin; type: cell-based
Method: FIGS. 9A-9B. […] (FIG. 9A) U2OS cells were treated with increasing concentrations of P7C3-A20 for 2 h prior to exposure to 0.5 μM doxorubicin for another 2 h. Cells were harvested and subjected to western blotting with the DNA damage marker, γ-H2AX. Actin was served as loading control. (FIG. 9B) U2OS cells were treated with P7C3-A20 and doxorubicin for the indicated time. Caspase-3 activation was determined by western blotting. Caspase-3 cleavage was observed when treated with doxorubicin alone at 60 h, but was prevented in the presence of P7C3-A20.
as §2

[6] = test system: NAD in U2OS cells; experiment: intracellular NAD abundance by LC-MS/MS; type: cell-based; conditions: U2OS cells exposed to sub-lethal doxorubicin
Method: FIGS. 5A-5C. Active variants of P7C3 compensate NAD exhaustion induced by doxorubicin. (FIG. 5A) U2OS cells were treated with the indicated concentration of P7C3-A20. Cells were harvested and NAD metabolites were measured by LC-MS/MS. Abundance of NAD was normalized relative to total metabolites (Experimental Procedures). The data are represented as the mean±SD of experimental duplicates. […] Cells were grown in 96-well plates and treated with the indicated concentrations of P7C3-A20, P7C3-S243, P7C3-S6 or P7C3-S117 together with 0.5 μM doxorubicin for 45 h. Cellular NAD abundance was determined by NAD/NADH Glo assay kit. […] The activities in both assays are represented by (Sinf−S0)/AC50 in dose response curves of test compounds.
Doxorubicin is a DNA-damaging toxin known to activate the poly ADP-ribose polymerase (PARP) enzyme as a central feature of DNA repair (Pacher et al., 2002) (Munoz-Gamez et al., 2009). […] U2OS cells exposed to sub-lethal levels of doxorubicin were lysed in methanol, cleared by centrifugation and subjected to metabolite analysis by mass spectrometry. These methods allow for the simultaneous, quantitative analysis of hundreds of intracellular metabolites (Tu et al., 2007) (Wang et al., 2009). […] The mass spectrometry methods used to quantitate metabolite levels measured NAD relative to hundreds of other intracellular metabolites. […]

COc1cccc(NCC(F)Cn2c3ccc(Br)cc3c3cc(Br)ccc32)c1 (stereo not shown) [S10]
Neurogenesis # BrdU+ Cells (X10E06)/mm3 Dentate Gyrus [1]: 19.0 (X10E06)/mm3 | protection from doxorubicin-mediated toxicity (dox:tox assay) [2]: protect cultured U2OS cells from doxorubicin-mediated toxicity | rebound of NAD levels (NAD/NADH-Glo kit) [3]: rebound of NAD levels | protection from seven other toxins [4]: no evidence of drug-mediated protection | DNA damage response (phosphorylation of H2AX) ([5]; 0.5 μM doxorubicin): not DNA damage response | doxorubicin-induced apoptosis (caspase-3 activation) ([5]; co-administration with doxorubicin): blocked doxorubicin-induced apoptosis | NAD level relative to total metabolites [6]: dose-dependent replenishment of NAD
